In data set [1] the test system is mammalian testicular hyaluronidase. The data set is described as follows: Reducing sugar assay of mammalian testicular hyaluronidase preincubated with heparin. Type of data set: biochemical. The conditions noted are these: heparin above 3 USP/ml; MTH 75 IU/ml; preincubated one hour at 25° C. The procedure:
Leech hyaluronidase (68 IU/ml was preincubated for one hour at 25° C. in the presence of concentrations of heparin (0-2500 USP/1 ml) in 20 mM methanesulphonic acid (MES), 0.1M NaCl, pH 5.0 buffer and then added to hyaluronic acid (5 mg/ml) and the incubation continued for one hour at 37° C. The generation of reducing sugars was determined by terminating the reactions by the addition of 1:1 3,5-dinitrosalicylic acid reagent (100 ml: 5% w/v dinitrosalicylic acid in 2M NaOH plus 250 ml: 60% w/v sodium potassium tartrate in water, made up to 500 ml with water) and heating for 5 min in vigorously boiling water. After heating, assay tubes were rapidly cooled to ambient temperature and absorbances at 540 nm measured spectrophotometrically. Suitable blanks and no-enzyme controls were included in the assay. The results are expressed as a percentage of the absorbances obtained in control incubations containing no heparin. […] MTH (75 IU/ml) was preincubated for one hour at 25° C. with heparin (0 to 250 USP/ml) in 20 mM MES, 0.1M NaCl pH 5.0, buffer and then added (1:10 final dilution) to hyaluronate and incubated for a further one hour at 37° C. Activity was determined using the reducing sugar assay (described above) and is expressed as a percentage of controls without heparin. […]

A further data set relates to whole blood. The data set is described as follows: Whole blood clotting time after incubation of heparin with or without leech hyaluronidase. The procedure:
Heparin (0-150 USP/ml) was incubated for one hour at […] either with or without leech hyaluronidase (50 IU/ml) and in 20 mM MES, 0.1M NaCl, pH 5.0 buffer; then whole blood was added to determine the effect on clottability.

Data set [2] in a line: Clotting time of patient plasma before and after heparinisation. The following applies: patient plasma after heparinisation with 30,000 USP/24 h; 40 seconds before. It is filed as in vivo, human. As for the experimental part:
B) Leech hyaluronidase (200 IU/ml) was preincubated for one hour at 25° C. with and without plasma and heparinised plasma in 20 mM MES, 0.1M NaCl, pH 5.0 buffer. Plasma was obtained from a patient before and after heparinisation with 30,000 USP/24 h resulting in an increase in the clotting time of 40 seconds to 80 seconds. Incubations were continued by addition to hyaluronic acid (see section A, above) and reducing sugars determined as above (Example 1).

The test system of data set [3] is leech hyaluronidase. The data set is described as follows: Leech hyaluronidase activity with heparin, with and without hementin. Type of data set: biochemical. The following applies: 60 min. The procedure: (§1) Leech hyaluronidase (68 IU/ml was preincubated for one hour at 25° C. in the presence of concentrations of heparin (0-2500 USP/1 ml) in 20 mM methanesulphonic acid (MES), 0.1M NaCl, pH 5.0 buffer and then added to hyaluronic acid (5 mg/ml) and the incubation continued for one hour at 37° C. The generation of reducing sugars was determined by terminating the reactions by the addition of 1:1 3,5-dinitrosalicylic acid reagent (100 ml: 5% w/v dinitrosalicylic acid in 2M NaOH plus 250 ml: 60% w/v sodium potassium tartrate in water, made up to 500 ml with water) and heating for 5 min in vigorously boiling water. After heating, assay tubes were rapidly cooled to ambient temperature and absorbances at 540 nm measured spectrophotometrically. Suitable blanks and no-enzyme controls were included in the assay. The results are expressed as a percentage of the absorbances obtained in control incubations containing no heparin.
B) Leech hyaluronidase (75 IU/ml) was mixed with and without hementin (180 IU/ml) (where IU is defined as one microgram of fibrinogen incoagulated/min/37° C.) end incubated with heparin (1.5-1500 USP/ml) for one hour at 25° C. prior to addition to hyaluronic acid (2 mg/ml) and further incubation for one hour at 37° C. Reducing sugar levels were determined (see Example 1) and the results expressed as a percentage of controls containing no heparin. (Table 3).

For data set [4], the system named is mammalian testicular hyaluronidase. The conditions noted are these: Mathews & Dorfman, Physiological Review, 35; cited from earlier work.
The subject of the next data set is Rats. Nature of the data set: Indian ink spreading after subcutaneous injection in rats. Type of data set: in vivo, rat. The conditions noted are these: heparin 250 to 2500 USP/ml with leech hyaluronidase. The procedure:
Leech hyaluronidase (100 IU/ml) was mixed 1:1 with Indian ink in 20 mM MES, 0.1M NaCl pH 5.0, buffer in the presence or absence of heparin (250 to 2500 USP/ml). Rats were injected subcutaneously with 50 microlitres of this mixture and spreading allowed to occur over a period of 1 to 3 hours. The rats were sacrificed and the skin removed for observation of the area of spreading.

The test system of data set [5] is leech hyaluronidase. Nature of the data set: Reducing sugar assay of leech hyaluronidase preincubated with heparin. Type of data set: biochemical. The conditions noted are these: heparin up to 2500 USP/ml; preincubated one hour at 25° C.; enzyme 68 IU/ml; FIG. 1. The procedure: as §1
Data set [6] deals with leech hyaluronidase. Nature of the data set: Leech hyaluronidase activity in the presence of tPA with and without heparin. Type of data set: biochemical. The conditions noted are these: tPA range of concentrations; presence or absence of heparin 200 USP/ml; FIG. 5. The procedure: as §1
A) Leech hyaluronidase (68 IU/ml) was mixed with and without heparin (200 USP/ml) and human tissue plasminogen activator (tPA) in a range of concentrations ([…]) and with hyaluronic acid (5 mg/ml) and incubated for 1 h at 37° C. Reducing sugars were determined (Example 1) and results expressed as a percentage of controls containing no tPA.

Take Heparin: in data set [1], the “mammalian testicular hyaluronidase activity, percentage of controls without heparin” value is listed as “completely inhibited”. Besides, the “Whole Blood Clotting Time” value was 14.5 min in the data set on whole blood (Heparin 1.0 USP/ml, Leech Enzyme (50IU/ml)); 14.5 min in the data set on whole blood (Heparin 1.0 USP/ml, without leech enzyme); 24.5 min in the data set on whole blood (Heparin 2.5 USP/ml, Leech Enzyme (50IU/ml)); 24.0 min in the data set on whole blood (Heparin 2.5 USP/ml, without leech enzyme); “NC (no clot formation before 20 minutes at 37° C.)” with whole blood (Heparin 5 USP/ml, Leech Enzyme (50IU/ml)); “NC (no clot formation before 20 minutes at 37° C.)” in the data set with whole blood (Heparin 5 USP/ml, without leech enzyme). The “Whole Blood Clotting Time” value in the data set on whole blood (Heparin 10 USP/ml, Leech Enzyme (50IU/ml)) is “NC (no clot formation before 20 minutes at 37° C.)”; with whole blood (Heparin 10 USP/ml, without leech enzyme) it was “NC (no clot formation before 20 minutes at 37° C.)”; in the data set with whole blood (Heparin 20 USP/ml, Leech Enzyme (50IU/ml)), “NC (no clot formation before 20 minutes at 37° C.)”; with whole blood (Heparin 20 USP/ml, without leech enzyme) it was “NC (no clot formation before 20 minutes at 37° C.)”. In data set [2], this substance registered a clotting time of 80 s. Besides, the “leech hyaluronidase activity, % Control (no heparin)” value with leech hyaluronidase [3] (Heparin 1.5 USP/ml, With Hementin (180 IU/ml)) was found to be 103%; in the data set on leech hyaluronidase [3] (Heparin 1.5 USP/ml, Without Hementin) it was 97.5%; in the data set on leech hyaluronidase [3] (Heparin 15 USP/ml, With Hementin (180 IU/ml)), 93.8%; in the data set with leech hyaluronidase [3] (Heparin 15 USP/ml, Without Hementin), 100%; with leech hyaluronidase [3] (Heparin 150 USP/ml, With Hementin (180 IU/ml)), 100%; in the data set on leech hyaluronidase [3] (Heparin 150 USP/ml, Without Hementin), 103%. In addition, the “leech hyaluronidase activity, % Control (no heparin)” value is 109% in the data set with leech hyaluronidase [3] (Heparin 1500 USP/ml, With Hementin (180 IU/ml)) and 103% in the data set on leech hyaluronidase [3] (Heparin 1500 USP/ml, Without Hementin). Moreover, the “inhibition of mammalian testicular hyaluronidase by heparin” value in data set [4] is reported as “inhibited competitively”. Further, the “effect of heparin on enzyme-induced ink spreading” value in the data set on Rats is given as “not significantly affected”. Further, the “leech hyaluronidase activity, percentage of control incubations containing no heparin” value in the data set on leech hyaluronidase [5] is recorded as “no significant effect”.

As to “tPA: human tissue plasminogen activator, a clot-lytic agent”, the “leech hyaluronidase activity, percentage of controls containing no tPA” value in the data set on leech hyaluronidase [6] is given as “no effect”.

Values taken from patent US5279824A, “Pharmaceutical formulation containing heparin and endo-beta-glucuronidase, useful for the treatment of thrombosis” (Merck Patent GmbH, priority 1988, dated 1994).
